Laboratory results reported in patent publication US10449221B2, “Differentiation of stem cells into thyroid tissue” (TRUSTEES OF BOSTON UNIVERSITY, priority 2015, dated 2019).
“Also recorded” adds a separate entry of the source.

Experiments:
[1] = system: Nkx2-1mCherry ESC line; assay: Maturation of ESC-derived Nkx2-1mCherry+ thyroid progenitors, marker mRNA by RT-PCR; format: cell-based, mouse; conditions: for thyroid specific gene expression: media used from D22 to D26, RT-PCR at Day 26
Method: Further differentiation and maturation of Nkx2-1+ sorted cells was performed in either 2D or 3D culture conditions, as indicated in the text. For 2D differentiation cells sorted on day 14 were replated and grown for 8 more days in cSFDM supplemented with 250 ng/ml mFGF2, 100 ng/ml hFGF10 and 100 ng/ml Heparin Sodium Salt. […] During the first 48 hours after sorting media was supplemented with 10 μM Y27632 (Sigma Y0503). From day 20-26 5 μg/ml ITS was included in the media. […] For cultures longer than 30 days, cells were splitted using Dispase (Corning 354235) on Day 30 and re-embedded in pure Matrigel, and fed with thyroid maturation media until the harvest day indicated in the text. RNA (for FIGS. 1 to 3 and 11c) was extracted from cells using the RNeasy kit (Qiagen 74104) following the manufacturer's protocol. 150 ng of RNA was reverse transcribed to cDNA using TaqMan reverse transcription reagents (Applied Biosystems N8080234) and the manufacturer's protocol. cDNA template was diluted 1:4, and 2 μl of the diluted template was used per 25 μl real time PCR reaction using Taqman Fast Universal PCR Master Mix (Applied Biosystems 4352042) and run in technical triplicates up to 40 cycles of PCR on the Applied Biosystems StepOne machine. Alternatively, 1 μl of the diluted template was used per 13 μl real time reaction on the Applied Biosystems 7900HT Real Time PCR System. Relative gene expression, normalized to 18S control, was calculated as fold change in 18S-normalized gene expression, over baseline, using the 2^(-ΔΔCT) method. Baseline, defined as fold change=1, was set to undifferentiated embryonic stem cell levels, or if undetected, a cycle number of 40 was assigned to allow fold change calculations. For FIGS. 5 and 11 (except FIG. 11c) total RNA was extracted from cultured cells using Stat-60 reagent (Tel-Test Cs-502). Then, 150 ng of total RNA was reverse transcribed using a SuperScript Vilo cDNA synthesis kit from Invitrogen. qPCR was performed in duplicate using the 800HT thermal cycler (Applied Biosystems). Relative mRNA levels were calculated using the standard curve method and normalized to peptidylprolyl isomerase A (cyclophilin). Cyclophilin expression was quantified with custom-made primers and probe (Forward primer: [NT]. ID. NO: 1), Reverse primer: [NT]. ID. NO: 2; Probe: [NT]. ID. NO: 3).

[2] = system: Xenopus embryos; assay: Xenopus whole embryo culture in pathway antagonists, in-situ hybridization for thyroid markers; format: in vivo; conditions: for induction of thyroid markers foxe1, nkx2-1, pax2 and hhex: inhibitor from stage NF13 until NF20, DMH-1 40 μM, SU5402 10 μM; for nkx2-1 induction in the developing thyroid primordium: inhibitor from stage NF13 through NF35, XAV939 50 μM, BMS493 10 μM
Method: Xenopus embryos were generated by in vitro fertilization and assayed by in situ hybridization or confocal immunostaining as previously described (Rankin et al., 2015). Small molecule inhibitors were dissolved in DMSO according to manufacturer's instructions and added to the embryo culture saline at the following working concentrations: 10 μM SU5402 (Tocris Bioscience), 40 μM DMH-1 (Sigma), 50 μM XAV939 (Sigma) and 10 μM BMS493 (Tocris Bioscience). Foregut explants were dissected from stage NF15 and treated with Dispase (BD Pharmingen) for 15 minutes and then the mesoderm was manually removed. Foregut endoderm was then cultured in 0.5× Modified Barth's Saline with 0.1% BSA with or without 500 ng/ml rhFGF2 and 50 ng/ml rhBMP4 (R&D systems).

[3] = system: Nkx2-1GFP+; Pax8tdTomato trace+ iPSC-derived cells; assay: Lineage specification of bifluorescent reporter iPSC line by day 14; format: cell-based, mouse; conditions: data not shown; for efficiency of lineage specification of Nkx2-1GFP+; Pax8tdTomato trace+ cells: Wnt inhibitor added to induction media; for efficiency of lineage specification, percent yield of GFP+/tdTomato+ cells: factor withdrawn or removed from the Nkx2-1 induction media
[4] = system: ESC-derived definitive endoderm; assay: Nkx2-1+ endoderm induction from ESC-derived endoderm, specification media day 6-14, flow cytometry on day 14; format: cell-based, mouse; conditions: for Nkx2-1+ cell specification by day 14: factor(s) present in induction media day 6-14; for Nkx2-1+ endodermal induction efficiency: sequential withdrawal of each individual factor from the WFKBE+2 cocktail
Method: Definitive endoderm induction was performed in complete serum-free differentiation medium (cSFDM) consisting of 75% IMDM (Invitrogen 12440) and 25% Ham's Modified F12 medium (Cellgro 10-080-CV) supplemented with N2 and B27+RA (Invitrogen 17502-048 and 17504-44), 0.05% BSA (Invitrogen 15260-037), […] L-glutamine (Invitrogen 25030-081), 0.05 mg/ml ascorbic acid (Sigma A4544) and 4.5×10^-4M MTG (Sigma M6145) as previously described (Gouon-Evans et al., 2006, Longmire et al., 2012). Undifferentiated ESCs were trypsinized to form a single cell suspension and plated onto Petri dishes (500,000 cells/10 cm dish) resulting in the formation of embryoid bodies (EBs) over 60 hours. EBs were dissociated by trypsinization (0.05%, 1 min, 37° C.) and plated as single cells into cSFDM supplemented with 50 ng/ml Activin A (R&D systems 338-AC) for an additional 60 hours. For Anteriorization of endoderm, on day 5 (120 total hours of differentiation) EBs were plated onto p100 Petri dishes in Nog/SB media: cSFDM supplemented with 100 ng/ml mNoggin (R&D 1967-NG) and 10 μM SB431542 (Sigma S4317) as previously described (Longmire et al., 2012). For Nkx2-1+ endoderm induction, EBs were plated on gelatin coated 6 well plates at the equivalent density of 200,000 cells/well in Specification media: cSFDM supplemented as stated in the text with 100 ng/ml mWnt3a (R&D 1324-WN), 10 ng/ml hFGF10 (R&D 345-FG), 10 ng/ml mKGF (R&D 5028-KG), 10 ng/ml mBMP4 (R&D 5020-BP), 20 ng/ml hEGF (R&D 236-EG), 250 ng/ml mFGF2 (R&D 3139-FB) and 100 ng/ml Heparin Sodium Salt (Sigma […]2-1mCherry+ cells, or the populations otherwise indicated in the text were sorted using MoFlo or […] II SORP high speed cell sorters and replated onto gelatin-coated 24 well plates on day 12-14 at a density of 5×10^4 cells/well. Where indicated in the text, small molecule inhibitors were dissolved in DMSO according to manufacturer's instructions and added to the culture media from day 6 to 14 at the following working concentrations: Dorsomorphin 4 μM (Sigma P5499), PD98059 20 μM, SB203580 10 μM (both from Cell Signaling Technology, PHZ1164 and 5633), and LY294002 […] (Promega V1201).

[5] = system: pSmad1/5; assay: Western blot of pSmad1/5 content in mouse foregut explants; format: cell-based; conditions: 24 hours of treatment, DMH-1 1.5 μM vs vehicle
Method: (§1) Whole foreguts were dissected from E8.5 embryos (6-8 somite pairs) in Hank's balanced salt solution (HBSS) then explanted onto 8 μm pore size Whatman Nucleopore Track-Etch Membranes (Millipore). Explants were cultured for 2-3 days in a base medium (BGJb medium (Gibco)+10% fetal bovine serum (FBS, Sigma) and 0.2 mg/ml ascorbic acid) containing either the BMPR inhibitor DMH-1 (1.5 μM, Tocris) or DMSO as a vehicle control. Whole mount immunostaining was performed using a modification of the method of Ahnfelt-Ronne et al. (Ahnfelt-Ronne et al., 2007). The primary antibodies used were: guinea pig anti-Nkx2-1 (Seven Hill Bioreagents; 1:500), rabbit anti-Pax8 (Protein Tech; 1:500) and rat anti-Ecad (R&D; 1:2000). After staining, samples were cleared with Murray's clear (2:1 benzyl benzoate: benzyl alcohol) and imaged using a Nikon A1Rsi inverted laser confocal microscope. Imaris software was used to analyze the images. DMH-1 treated and control explants were harvested and lysed in Laemmli buffer after 24 hours of treatment. Lysates were electrophoresed on a 10-20% Tris-glycine gel under reducing conditions, Western blotted, and probed with antibodies (Cell Signaling) to detect total Smad1/5 and pSmad 1/5 content; β-actin content served as a loading control.

[6] = system: mouse foregut explants; assay: Mouse E8.5 whole foregut explant culture, whole mount immunostaining for Nkx2-1 and Pax8; format: cell-based; conditions: 6-8 somite foreguts, 2-3 days, DMH-1 1.5 μM vs DMSO
Method: as §1

## thyroid stimulating hormone [TSH]
[1]; TSH added after lineage specification, day 14-22
  Nis, Tsh-r, and Tpo expression: significant augmentation of Nis, Tsh-r, and Tpo expression
[1]; TSH added day 14-22, data not shown
  expression of lineage markers Nkx2-1 and Pax8: no significant change
[1]; TSH added prior to lineage specification, day 9-12, data not shown
  efficiency of thyroid lineage specification: no detectable effect
[1]; additional 3 days of culture maturation in the presence of TSH (Day 25 vs Day 22)
  Nis and Tsh-r expression: further augmentation of Nis and Tsh-r expression
[1]
  thyroid specific gene expression: increase thyroid specific gene expression
[1]; substitution of TSH for cAMP in the DCI+K media, day 22-26
  thyroid maturation marker Nis: most robust augmentation of the thyroid maturation marker, Nis

## Cc1c[nH]c(/C=C2\C(=O)Nc3ccccc32)c1CCC(=O)O [SU5402]
[2]
  induction of thyroid markers foxe1, nkx2-1, pax2 and hhex: abrogated induction of all four thyroid markers in the vast majority of embryos

## Nc1ncnc2c1ncn2[C@@H]1O[C@@H]2COP(=O)(O)O[C@H]2[C@H]1O [cAMP, cyclic adenosine monophosphate, reference compound]
[1]
  thyroid specific gene expression: increase thyroid specific gene expression
[1]; withdrawal of the factor from the DCI+K cocktail, day 22-26
  maturation marker expression: adversely affected maturation

## Oc1nc(-c2ccc(C(F)(F)F)cc2)nc2c1CSCC2 [XAV939, reference compound]
[3]
  efficiency of lineage specification of Nkx2-1GFP+; Pax8tdTomato trace+ cells: no significant impact
[2]
  nkx2-1 induction in the developing thyroid primordium: normal nkx2-1 induction

## CC1(C)CC=C(C#Cc2ccccc2)c2cc(/C=C/c3ccc(C(=O)O)cc3)ccc21 [BMS493]
[2]
  nkx2-1 induction in the developing thyroid primordium: normal nkx2-1 induction

## fibroblast growth factor 2 (basic) [FGF2]
[3]
  efficiency of lineage specification, percent yield of GFP+/tdTomato+ cells: significant decrease in the percent yield of GFP+/tdTomato+ cells
[4]
  Nkx2-1+ cell specification by day 14: induced low numbers of Nkx2-1+ cells with little thyroid competence
  Nkx2-1+ endodermal induction efficiency: indispensible for efficient Nkx2-1+ endodermal induction

## CC(C)Oc1ccc(-c2cnc3c(-c4ccnc5ccccc45)cnn3c2)cc1 [DMH-1]
[5]
  phosphorylation of SMAD1/5/8, pSmad1/5 content: substantial reduction in pSmad1/5 content; also recorded: marked reduction in phosphorylation of SMAD1/5/8
[2]
  induction of thyroid markers foxe1, nkx2-1, pax2 and hhex: abrogated induction of all four thyroid markers in the vast majority of embryos
[6]
  induction of Nkx2-1 and Pax8, thyroid bud formation: no thyroid bud was apparent; also recorded: blocked induction of both Nkx2-1 and Pax8

B1: bone morphogenetic protein 4 (protein, UniProt P12644 293-408, looked up)
Bone morphogenetic protein 4: SPKHHSQRARKKNKNCRRHSLYVDFSDVGWNDWIVAPPGYQAFYCHGDCPFPLADHLNSTNHAIVQTLVNSVNSSIPKACCVPTELSAISMLYLDEYDKVVLKNYQEMVVEGCGCR
notes: growth factor in specification media
[3]
  efficiency of lineage specification, percent yield of GFP+/tdTomato+ cells: significant decrease in the percent yield of GFP+/tdTomato+ cells
[4]
  Nkx2-1+ cell specification by day 14: induced low numbers of Nkx2-1+ cells with little thyroid competence
  Nkx2-1+ endodermal induction efficiency: indispensible for efficient Nkx2-1+ endodermal induction

B2: Dkk1: Wnt inhibitor (protein, UniProt O94907 32-266, looked up)
Dickkopf-related protein 1: TLNSVLNSNAIKNLPPPLGGAAGHPGSAVSAAPGILYPGGNKYQTIDNYQPYPCAEDEECGTDEYCASPTRGGDAGVQICLACRKRRKRCMRHAMCCPGNYCKNGICVSSDQNHFRGEIEETITESFGNDHSTLDGYSRRTTLSSKMYHTKGQEGSVCLRSSDCASGLCCARHFWSKICKPVLKEGQVCTKHRRKGSHGLEIFQRCYCGEGLSCRIQKDHHQASNSSRLHTCQRH
[3]
  efficiency of lineage specification of Nkx2-1GFP+; Pax8tdTomato trace+ cells: no significant impact
